According to US12024510B2, “Pyrazolopyridine-diamides, their use as insecticide and processes for preparing the same” (PI INDUSTRIES LTD., priority 2017, dated 2024):

Key:
Type in all cases: in vivo
Helicoverpa armigera = Helicoverpa armigera diet incorporation method; settings: third instar larvae, dead and moribund combined, 96 h after release
In short: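 500 ppm stock of compound milled with surfactant and zirconia beads to average particle size below 2 μm, dispersed in DM water, diluted as needed, and mixed into semi-synthetic diet at about 50° C. Single starved third-instar larvae per cell, held at 25° C., 70% RH; dead plus moribund larvae scored as percent mortality at 96 h.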

Spodoptera litura = Spodoptera litura diet incorporation method; settings: third instar larvae, dead and moribund combined, 96 h after release
In short: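 Compound milled to <2 μm average particle size in surfactant, dispersed in water (500 ppm stock dispersion), then mixed into semi-synthetic diet at ~50° C. One starved third-instar larva per diet cell, 25° C, 70% RH; percent mortality (dead plus moribund) scored at 96 h.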

Plutella xylostella = experiment: whole plant or invertebrate; settings: foliar, cabbage leaf dip, second instar larvae, dead and moribund combined, 72 h after release
In short: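 Compounds milled with zirconia beads into surfactant dispersion (500 ppm stock), diluted in 0.01% Triton-X. Cabbage leaves dipped 10 s, shade-dried 20 min; one second-instar larva per cell, 25 °C, 70% RH. Mortality (dead plus moribund) scored at 72 h.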

Measured: mortality at 300 ppm

CNC(=O)c1c(NC(=O)c2cc(OC)nn2-c2ncccc2Cl)c(Cl)cc2ccnn12 [Compound 135, 5-chloro-6-(1-(3-chloropyridin-2-yl)-3-methoxy-1H-pyrazole-5-carboxamido)-N-methylpyrazolo[1,5-a]pyridine-7-carboxamide]
> 70%: all assays above

CCNC(=O)c1c(NC(=O)c2cc(Br)nn2-c2ncccc2Cl)c(C)cc2ccnn12 [Compound 2, 6-(3-bromo-1-(3-chloropyridin-2-yl)-1H-pyrazole-5-carboxamido)-N-ethyl-5-methylpyrazolo[1,5-a]pyridine-7-carboxamide]
> 70%: all assays above

COc1cc(C(=O)Nc2c(C)cc3ccnn3c2C(=O)NCC2CCCC2)n(-c2ncccc2Cl)n1 [Compound 203, 6-(1-(3-chloropyridin-2-yl)-3-methoxy-1H-pyrazole-5-carboxamido)-N-(cyclopentylmethyl)-5-methylpyrazolo[1,5-a]pyridine-7-carboxamide]
> 70%: all assays above

COc1cc(C(=O)Nc2c(Cl)cc3ccnn3c2C(=O)NC(C)C)n(-c2ncccc2Cl)n1 [Compound 133, 5-chloro-6-(1-(3-chloropyridin-2-yl)-3-methoxy-1H-pyrazole-5-carboxamido)-N-isopropylpyrazolo[1,5-a]pyridine-7-carboxamide]
> 70%: all assays above

CNC(=O)c1c(NC(=O)c2cc(C(F)(F)F)nn2-c2ncccc2Cl)c(Cl)cc2ccnn12 [Compound 162, 5-chloro-6-(1-(3-chloropyridin-2-yl)-3-(trifluoromethyl)-1H-pyrazole-5-carboxamido)-N-methylpyrazolo[1,5-a]pyridine-7-carboxamide]
> 70%: all assays above

COc1cc(C(=O)Nc2c(C)cc3ccnn3c2C(=O)NC(C)(C)C)n(-c2ncccc2Cl)n1 [Compound 30, N-(tert-butyl)-6-(1-(3-chloropyridin-2-yl)-3-methoxy-1H-pyrazole-5-carboxamido)-5-methylpyrazolo[1,5-a]pyridine-7-carboxamide]
> 70%: all assays above

COc1cc(C(=O)Nc2c(Cl)cc3ccnn3c2C(=O)NCC(F)(F)F)n(-c2ncccc2Cl)n1 [Compound 137, 5-chloro-6-(1-(3-chloropyridin-2-yl)-3-methoxy-1H-pyrazole-5-carboxamido)-N-(2,2,2-trifluoroethyl)pyrazolo[1,5-a]pyridine-7-carboxamide]
> 70%: all assays above
